This test relates to NK cells. The experiment in a line: NK cell IFNγ production by intracellular flow cytometry after two-day in vivo treatment. On the set-up: species or system mice. To be noted: two-day 3AC vs vehicle. The method, then:
FIGS. 3B-3E show activation of NK cells and T cells following exposure to the SHIP1 inhibitor 3AC in vivo. NK cells from two-day 3AC- or vehicle-treated mice were stimulated by incubation on uncoated plates, on plates coated with anti-NK1.1, anti-NKp46, or anti-NKG2D antibody, or on uncoated plates but in the presence of PMA and ionomycin. Representative flow plots (FIG. 3B) and box and whisker plots (FIG. 3C) show the frequency of NK cell production of IFNγ determined by intracellular flow cytometry. […] Anti-CD107a (LAMP-1) PE antibody was added for the final 5 hours of incubation. Degranulation of CD8+ T cells was determined by analysis of CD107a expression by flow cytometry. […]
SHIP1 is recruited directly to the T cell receptor (TcR), as well as to the scaffolding protein Dokl that limits T cell activation by the TcR (Reginald, K., Revisiting the timing of action of the PAG adaptor using quantitative proteomics analysis of primary T cells. J Immunol. (2015); 195: 5472-5481; Waterman, P. M. et al., The inositol 5phosphatase SHIP-1 and adaptors Dok-1 and 2 play central roles in CD4-mediated inhibitory signaling. Immunol Lett. (2012); 143: 122-130; Freeburn, R. W. et al., Evidence that SHIP-1 contributes to phosphatidylinositol 3,4,5-trisphosphate metabolism in T lymphocytes and can regulate novel phosphoinositide 3-kinase effectors. […]

Regarding `CC(C)CCC[C@@H](C)[C@H]1CC[C@H]2[C@@H]3CCC4C[C@H](N)CC[C@]4(C)[C@H]3CC[C@]12C` (stereo partly drawn) [Compound 3AC, 3-α-aminocholestane], the “NK cell IFNγ production” value (stimulated with PMA and ionomycin) was “no difference”; the “NK cell IFNγ production” value (stimulation with anti-NK1.1, anti-NKp46 or anti-NKG2D) was “significantly increased”.
